Source: paper PMC9516332 (Frontiers in Oncology, 2022)
Like-named read-outs stand apart in the source and are kept apart here.

Key:
Assay in all cases: Kinase panel profiling at 1 µmol/L (MSA or IMAP), percentage inhibition
Format in all cases: biochemical
[1] = target: panel of 255 wild-type kinases (Homo sapiens, UniProt O00311); settings: CDC7/ASK kinase assay; 1 µmol/L single concentration; read-out: %-inhibition CDC7/ASK
[2] = target: T1, panel of 255 wild-type kinases (Homo sapiens, UniProt O14920); settings: kinase IKKβ; 1 µmol/L single concentration; read-out: %-inhibition at 1 µmol/L, IKKβ
T1 sequence (O14920 1-756): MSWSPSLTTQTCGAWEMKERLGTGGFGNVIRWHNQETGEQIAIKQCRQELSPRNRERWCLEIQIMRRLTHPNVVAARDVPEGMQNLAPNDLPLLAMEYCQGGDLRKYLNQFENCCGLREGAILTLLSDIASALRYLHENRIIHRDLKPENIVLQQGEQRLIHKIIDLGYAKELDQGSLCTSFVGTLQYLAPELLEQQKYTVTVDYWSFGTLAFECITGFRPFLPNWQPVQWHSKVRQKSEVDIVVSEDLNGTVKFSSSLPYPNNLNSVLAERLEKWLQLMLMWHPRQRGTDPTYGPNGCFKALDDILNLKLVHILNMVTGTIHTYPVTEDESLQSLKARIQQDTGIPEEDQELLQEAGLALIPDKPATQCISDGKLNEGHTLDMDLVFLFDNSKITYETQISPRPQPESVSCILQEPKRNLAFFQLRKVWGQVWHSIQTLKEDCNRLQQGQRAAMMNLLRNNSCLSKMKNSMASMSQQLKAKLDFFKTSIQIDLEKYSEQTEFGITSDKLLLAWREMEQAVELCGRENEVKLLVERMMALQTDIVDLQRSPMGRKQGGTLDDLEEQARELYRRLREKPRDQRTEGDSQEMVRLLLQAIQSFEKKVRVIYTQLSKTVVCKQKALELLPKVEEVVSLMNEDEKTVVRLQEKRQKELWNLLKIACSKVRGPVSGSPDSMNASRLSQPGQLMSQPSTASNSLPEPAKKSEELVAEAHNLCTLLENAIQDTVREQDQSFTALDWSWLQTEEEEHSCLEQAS

[3] = target: panel of 255 wild-type kinases (Homo sapiens, UniProt P00519); settings: ABL kinase assay; 1 µmol/L single concentration; read-out: %-inhibition ABL
[4] = target: panel of 255 wild-type kinases (Homo sapiens, UniProt P07949); settings: kinase RET; 1 µmol/L single concentration; read-out: %-inhibition at 1 µmol/L, RET
[5] = target: panel of 255 wild-type kinases (Homo sapiens, UniProt P12931); settings: kinase SRC; 1 µmol/L single concentration; read-out: %-inhibition at 1 µmol/L, SRC
[6] = target: panel of 255 wild-type kinases (Homo sapiens, UniProt P17612); settings: kinase PKACα; 1 µmol/L single concentration; read-out: %-inhibition at 1 µmol/L, PKACα
[7] = target: panel of 255 wild-type kinases (Homo sapiens, UniProt P22694); settings: kinase PKACβ; 1 µmol/L single concentration; read-out: %-inhibition at 1 µmol/L, PKACβ
[8] = target: panel of 255 wild-type kinases (Homo sapiens, UniProt Q02763); settings: kinase TIE2; 1 µmol/L single concentration; read-out: %-inhibition at 1 µmol/L, TIE2
[9] = target: T2, panel of 255 wild-type kinases (Homo sapiens, UniProt Q13188); settings: MST2; 1 µmol/L single concentration; read-out: %-inhibition, MST2
T2 sequence (Q13188 1-491): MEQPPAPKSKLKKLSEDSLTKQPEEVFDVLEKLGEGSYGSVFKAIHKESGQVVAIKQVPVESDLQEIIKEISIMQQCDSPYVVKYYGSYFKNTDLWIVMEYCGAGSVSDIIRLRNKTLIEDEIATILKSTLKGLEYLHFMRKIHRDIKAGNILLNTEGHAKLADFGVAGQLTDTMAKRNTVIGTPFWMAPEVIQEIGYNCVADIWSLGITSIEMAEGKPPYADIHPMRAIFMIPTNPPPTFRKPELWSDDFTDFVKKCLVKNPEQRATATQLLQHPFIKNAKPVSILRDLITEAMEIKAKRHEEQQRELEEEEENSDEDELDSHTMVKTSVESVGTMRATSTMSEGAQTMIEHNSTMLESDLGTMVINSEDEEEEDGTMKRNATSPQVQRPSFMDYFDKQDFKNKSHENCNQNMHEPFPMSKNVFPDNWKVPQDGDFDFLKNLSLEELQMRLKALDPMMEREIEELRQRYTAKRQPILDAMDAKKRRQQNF

[10] = target: T3, panel of 255 wild-type kinases (Homo sapiens, UniProt Q16566); settings: CaMK4 kinase assay; 1 µmol/L single concentration; read-out: %-inhibition CaMK4
T3 sequence (Q16566 1-473): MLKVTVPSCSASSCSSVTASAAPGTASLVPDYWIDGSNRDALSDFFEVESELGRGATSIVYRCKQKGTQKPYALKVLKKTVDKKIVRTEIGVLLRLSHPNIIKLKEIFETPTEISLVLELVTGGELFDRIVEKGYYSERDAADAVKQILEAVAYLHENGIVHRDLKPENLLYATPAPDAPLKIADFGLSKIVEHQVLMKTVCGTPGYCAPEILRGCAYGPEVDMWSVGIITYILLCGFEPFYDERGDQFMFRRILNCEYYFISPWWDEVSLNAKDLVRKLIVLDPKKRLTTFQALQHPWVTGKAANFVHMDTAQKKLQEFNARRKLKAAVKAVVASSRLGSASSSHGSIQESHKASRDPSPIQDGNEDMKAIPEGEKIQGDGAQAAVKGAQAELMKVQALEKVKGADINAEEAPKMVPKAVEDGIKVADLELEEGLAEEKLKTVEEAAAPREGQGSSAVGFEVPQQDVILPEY

[11] = target: panel of 255 wild-type kinases (Homo sapiens, UniProt Q8N568); settings: kinase DCAMKL2; 1 µmol/L single concentration; read-out: %-inhibition at 1 µmol/L, DCAMKL2
[12] = target: panel of 255 wild-type kinases (Homo sapiens, UniProt Q9Y243); settings: AKT3 kinase assay; 1 µmol/L single concentration; read-out: %-inhibition AKT3
[13] = system: panel of 255 wild-type kinases
[14] = kinase FYN [isoform b], 1 µmol/L single concentration
[15] = kinase LYNb, 1 µmol/L single concentration
[16] = kinase PKCβ2, 1 µmol/L single concentration
[17] = kinase SRM, 1 µmol/L single concentration

Row | SMILES | inhibition at 1 µM [1] [%] | inhibition at 1 µM [2] [%] | inhibition at 1 µM [3] [%] | inhibition at 1 µM [4] [%] | inhibition at 1 µM [5] [%] | inhibition at 1 µM [6] [%] | inhibition at 1 µM [7] [%] | inhibition at 1 µM [8] [%] | inhibition at 1 µM [9] [%] | inhibition at 1 µM [10] [%] | inhibition at 1 µM [11] [%] | inhibition at 1 µM [12] [%] | %-inhibition at 1 µmol/L, FYN [isoform b] [13, 14] [%] | %-inhibition at 1 µmol/L, LYNb [13, 15] [%] | %-inhibition at 1 µmol/L, PKCβ2 [13, 16] [%] | %-inhibition at 1 µmol/L, SRM [13, 17] [%] | also measured
1 | CO[C@]1(C(=O)N[C@@H](C)c2ccc(-n3cc(F)cn3)nc2)CC[C@H](c2nc(C)cc(Nc3cc(C)[nH]n3)n2)CC1 [pralsetinib] | -1.05 | 32 | 37 | 99 | 94 | 16 | 20 | 5.49 | 5.55 | 0.271 | 1.65 | -2.71 | 30 | 89 | -1.78 | 13 | number of the 255 profiled kinases inhibited by more than 50% ([13]; 1 µmol/L inhibitor): 71
2 | COc1cc2ncnc(Nc3ccc(F)c(Cl)c3)c2cc1NC(=O)/C=C/CN1CCCCC1 [dacomitinib] | 0.799 | 6 |  | 40 | 44 | -11 | 6 | 16 | 2 | 2.44 | 1.42 | -5 | 37 | 74 | 5.44 | 1.79 | 
3 | CCn1c(=O)c(-c2cc(NC(=O)Nc3ccccc3)c(F)cc2Br)cc2cnc(NC)cc21 [ripretinib] | 0.278 | 21 | 18 | 94 | 71 | -16 | -3.65 | 79 | 0.11 | 1.71 | 2 | -6.42 | 33 | 85 | -0.488 | 32 | 
4 | Cc1nc(NC(=O)N2CCC[C@H]2C(N)=O)sc1-c1ccnc(C(C)(C)C(F)(F)F)c1 [alpelisib] | -0.499 | 0.111 | 16 | 1.62 | 3.29 | -13 | -20 | -0.712 | 1.52 | -7 | 6.52 | -0.151 | -5.63 | 4.67 | 2.32 | 1 | 
5 | C=CC(=O)N1CCC([C@@H]2CCNc3c(C(N)=O)c(-c4ccc(Oc5ccccc5)cc4)nn32)CC1 [zanubrutinib] | -4 | -0.69 | -4.52 | 16 |  | -13 | -8 | 2 | 1.56 | 0.733 | 0.323 | -3 | 22 | 55 | -1.66 | 58 | 
6 | O=C(Nc1cnn2ccc(N3CCC[C@@H]3c3cc(F)ccc3F)nc12)N1CC[C@H](O)C1 [larotrectinib] | -3.24 | -1.76 | -7 | 1.71 | -4.39 | -20 | -14 | 1.84 | 0.182 | 0.861 | 0.701 | -5.46 | 1.64 | 1.48 | -2 | -3.2 | kinases inhibited by more than 50% ([13]; 1 µmol/L inhibitor): TRKA, TRKB, TRKC, ROS1, and ACK1
7 | CN1CCN(c2ccc(C(=O)Nc3n[nH]c4ccc(Cc5cc(F)cc(F)c5)cc34)c(NC3CCOCC3)c2)CC1 [entrectinib] | 0.952 | -0.451 | 77 |  | 95 | -7 | -21 | 72 | 35 | 1.07 | 16 | -1.28 |  |  |  |  | %-inhibition at 1 µmol/L, FYN [isoform b] [13]: 95%; %-inhibition at 1 µmol/L, LYNb [13]: 72%; %-inhibition at 1 µmol/L, PKCβ2 [13]: 14%; %-inhibition at 1 µmol/L, SRM [13]: 72%; number of the 255 profiled kinases inhibited by more than 50% [13]: 75
8 | CCN1CCN(c2ccc(Nc3cc(N(C)C(=O)Nc4c(Cl)c(OC)cc(OC)c4Cl)ncn3)cc2)CC1 [infigratinib] | -2 | 0.304 | 10 |  | 37 | -28 | -17 | 63 | -2.14 | 2.47 | 4.25 | -7 | 43 | 84 | 1.5 | -2.75 | 
